From patent publication US4997816A, “Induction of fertile ovulation in anoestruns mares” (The University of Melbourne, priority 1985, dated 1991)
Several values for one entry are separate records, joined by “and”; a condition that tells them apart may be missing. Identical values can stand only once. Like-named read-outs stand apart in the source and are kept apart here.

Tests used:
Format in all cases: in vivo, mare
[1] = test system: mares in transitional anoestrus; assay: Combined results, transitional anoestrus (1984 and 1985); settings: 100 ng/kg/h
Procedure: The experiment commenced on Sept. 10, 1984. Mares were randomised in pairs to a Treated group or a Control group until all the mares had been assigned to groups by Sept. 21. The mares were paired on the basis of each mare having approximately equal ovarian follicular activity. Each treated mare was weighted just prior to the experiment. The dose of GnRH (100 ng/kg/hr) to be administered over 28 days was calculated and dissolved in sterile, physiological (0.9%) saline. The solution was loaded into an OMP and placed in a beaker of saline at room temperature overnight to allow for the "start up time" of the OMP. The mares were divided into 2 groups. One group (n=g) was treated with an infusion of GnRH at a rate of 100 ng/kg/h delivered by subcutaneously implanted OMP for 28 days. The mares were run in paddocks during the experiment and brought into yards every 2 or 3 days, during which time oestrus detection was carried out. […] Blood samples were collected 3 times per week for determination of plasma LH and progesterone concentrations. Ultrasound echography was used to diagnose pregnancy 14 days after ovulation, and every 2 or 3 days thereafter until Day 45 of pregnancy, when the experiment was terminated.

[2] = test system: Standardbred mares in transitional or "shallow" anoestrus
Source text: Delivery of GnRH was achieved via osmotic minipumps (OMP; Alza Corp., Palo Alto, CA:). These pumps are constructed of a rigid, semi-permeable membrane, inside which is suspended a water-proof bag which is filled with the substance to be infused. The neck of the bag is open to the atmosphere. Between the bag and the membrane a special osmotic solution is held. This solution causes an influx of water through the semi-permeable membrane when the OMP is placed in the body of animals. The influx of water collapses the bag at a fixed rate and the substance contained in the bag is expelled from the OMP at a steady rate. […] Ten young Standardbred mares of 3 to 5 years of age as judged by wear of the teeth were used in the experiment. During the experiment, the mares were fed hay twice daily and kept in a paddock. The mares were vaccinated against Tetanus and Strangles and were given regular anthelmintic and lice treatments. Their body condition during the experiment was good to very good. Ovarian palpations were carried out and blood was collected from the mares every 2 or 3 days for 4 weeks prior to commencement of the experiment. […] The experiment commenced on Sept. 10, 1984. Mares were randomised in pairs to a Treated group or a Control group until all the mares had been assigned to groups by Sept. 21. The mares were paired on the basis of each mare having approximately equal ovarian follicular activity. Each treated mare was weighted just prior to the experiment. The dose of GnRH (100 ng/kg/hr) to be administered over 28 days was calculated and dissolved in sterile, physiological (0.9%) saline. The solution was loaded into an OMP and placed in a beaker of saline at room temperature overnight to allow for the "start up time" of the OMP. The OMP were inserted subcutaneously in the side of the necks of the treated mares, under local infiltration anaesthesia. The pumps were retained using 1 or 2 mattress sutures in the skin. After insertion of the OMP, the treated and control mares were run as a group in a single paddock. Every 2 or 3 days the mares were brought into the yards. Ovarian palpations were carried out and blood samples were collected on these days. In addition, the mares were teased with a vigorous stallion, to detect oestrus. […] Blood samples were assayed for lutsinizing hormone (LH) and progesterone concentrations. Ultrasound echography was used to diagnose pregnancy 14 days after ovulation. Subsequent ultrasound examinations were made every 2 or 3 days until Day 45 of pregnancy, when the experiment was terminated.

[3] = test system: maiden Standardbred mares in deep winter anoestrus; assay: Example III: 28-day subcutaneous GnRH infusion by osmotic minipump, induction of ovulation (1985); settings: for Proportion mares ovulating: deep anoestrus; for Proportion mares ovulating / Percentage mares ovulating: 1985
Source text: Delivery of GnRH was achieved via osmotic minipumps (OMP; Alza Corp., Palo Alto, CA:). These pumps are constructed of a rigid, semi-permeable membrane, inside which is suspended a water-proof bag which is filled with the substance to be infused. The neck of the bag is open to the atmosphere. Between the bag and the membrane a special osmotic solution is held. This solution causes an influx of water through the semi-permeable membrane when the OMP is placed in the body of animals. The influx of water collapses the bag at a fixed rate and the substance contained in the bag is expelled from the OMP at a steady rate. […] Sixteen maiden Standardbred mares, 3 to 6 years of age were used in the experiment which was conducted during deep winter anoestrus in 1985. The mares were in good to excellent condition and were run in 2 outside paddocks during the period of the experiment. The mares were divided into 3 groups. Group C (n=5) were untreated and acted as a control group, while Group 50 (n=5) and Group 100 (n=6) received infusions of GnRH at rates of 50 ng/kg/h and 100 ng/kg/h, respectively. The GnRH was delivered via subcutaneously implanted OMP for 28 days, starting on July 2, 1985. Ovarian palpations and oestrus detection was carried out 3 times per week or daily when an ovarian follice of >3 cm diameter was detected.

[4] = test system: Standardbred and Standardbred-type mares in transitional anoestrus
Source text: Delivery of GnRH was achieved via osmotic minipumps (OMP; Alza Corp., Palo Alto, CA:). These pumps are constructed of a rigid, semi-permeable membrane, inside which is suspended a water-proof bag which is filled with the substance to be infused. The neck of the bag is open to the atmosphere. Between the bag and the membrane a special osmotic solution is held. This solution causes an influx of water through the semi-permeable membrane when the OMP is placed in the body of animals. The influx of water collapses the bag at a fixed rate and the substance contained in the bag is expelled from the OMP at a steady rate. […] Seventeen Standardbred and Standardbred-type mares 3 to 9 years of age were used in the experiment, which commenced on Oct. 2, 1985, when the mares were in transitional anoestrus. The mares were divided into 2 groups. One group (n=g) was treated with an infusion of GnRH at a rate of 100 ng/kg/h delivered by subcutaneously implanted OMP for 28 days. The mares were run in paddocks during the experiment and brought into yards every 2 or 3 days, during which time oestrus detection was carried out. […] Blood samples were collected 3 times per week for determination of plasma LH and progesterone concentrations. Ultrasound echography was used to diagnose pregnancy 14 days after ovulation, and every 2 or 3 days thereafter until Day 45 of pregnancy, when the experiment was terminated.

mares in deep anoestrus = assay: Combined results, deep anoestrus (1984 and 1985); settings: 1984 and 1985 combined
Procedure: Fourteen Standardbred mares in deep anoestrus were divided into 3 groups. Group C (controls; n=5) received no treatment while Group 50 (n=5) and Group 100 (n=4) were given infusions of GnRH at rates of 50 ng/kg/h and 100 ng/kg/h respectively. The GnRH was administered via subcutaneously implanted osmotic minipumps (OMP) for 28 days. Blood samples were collected daily and ovarian palpation and oestrus detection was carried out 3 times per week or daily if a follicle >3.5 cm was detected. The mares were divided into 3 groups. Group C (n=5) were untreated and acted as a control group, while Group 50 (n=5) and Group 100 (n=6) received infusions of GnRH at rates of 50 ng/kg/h and 100 ng/kg/h, respectively. The GnRH was delivered via subcutaneously implanted OMP for 28 days, starting on July 2, 1985. Ovarian palpations and oestrus detection was carried out 3 times per week or daily when an ovarian follice of >3 cm diameter was detected.

[5] = test system: Standardbred mares in deep anoestrus; settings: for Proportion mares ovulating: deep anoestrus; for Proportion mares ovulating / Percentage mares ovulating: 1984
Source text: Delivery of GnRH was achieved via osmotic minipumps (OMP; Alza Corp., Palo Alto, CA:). These pumps are constructed of a rigid, semi-permeable membrane, inside which is suspended a water-proof bag which is filled with the substance to be infused. The neck of the bag is open to the atmosphere. Between the bag and the membrane a special osmotic solution is held. This solution causes an influx of water through the semi-permeable membrane when the OMP is placed in the body of animals. The influx of water collapses the bag at a fixed rate and the substance contained in the bag is expelled from the OMP at a steady rate. […] Fourteen Standardbred mares in deep anoestrus were divided into 3 groups. Group C (controls; n=5) received no treatment while Group 50 (n=5) and Group 100 (n=4) were given infusions of GnRH at rates of 50 ng/kg/h and 100 ng/kg/h respectively. The GnRH was administered via subcutaneously implanted osmotic minipumps (OMP) for 28 days. Blood samples were collected daily and ovarian palpation and oestrus detection was carried out 3 times per week or daily if a follicle >3.5 cm was detected.

[6] = Group 50, 50 ng/kg/h s.c. OMP 28 days
[7] = Group 100, 100 ng/kg/h s.c. OMP 28 days

CC(C)C[C@H](NC(=O)CNC(=O)[C@H](Cc1ccc(O)cc1)NC(=O)[C@H](CO)NC(=O)[C@H](Cc1c[nH]c2ccccc12)NC(=O)[C@H](Cc1c[nH]cn1)NC(=O)[C@@H]1CCC(=O)N1)C(=O)N[C@@H](CCCNC(=N)N)C(=O)N1CCC[C@H]1C(=O)NCC(N)=O [GnRH, pGlu-His-Trp-Ser-Tyr-Gly-Leu-Arg-Pro-Gly-NH2]
Day of ovulation (x ± s.e.m.) ([1]; 1984 and 1985 combined, n=14, P < .001 compared to controls): 18.6 ± 3.0 | Day of conception (x ± s.e.m.) ([1]; 1984 and 1985 combined, n=14, P < .05 compared to controls): 25.2 ± 6.0 | Average day of ovulation earlier than the controls ([1]; data for the 2 years combined): approximately 23 days | Day of conception earlier than the controls ([1]; data for the 2 years combined): 24 days | Treated mares that ovulated during GnRH infusion ([2]; 100 ng/kg/hr s.c. OMP 28 days, transitional anoestrus, 1984): Four of the 5 | Treated mares that conceived in association with the first ovulation after insertion of the OMP ([2]; 100 ng/kg/hr, 1984): Four of the 5 | Day of conception (x ± s.e.m.) ([2]; 100 ng/kg/hr, 1984, n=5, after OMP insertion, p<0.01 vs controls): 26.6 ± 9.7 days and 26.6 days | Time (day) of ovulation from commencement of the experiment (x ± s.e.m.) ([2]; 100 ng/kg/hr, 1984, n=5, p<0.01 vs controls): 18.6 ± 4.1 days and 18.6 days | Average time from OMP insertion to ovulation ([3]; Group 50, 50 ng/kg/h): 24 days | Proportion mares ovulating [3, 6]: 1 of 5 and 1/5 | Percentage mares ovulating ([3]; Group 50, 50 ng/kg/h): 20% | Average time from OMP insertion to ovulation ([3]; Group 100, 100 ng/kg/h): 21.8 days | Proportion mares ovulating [3, 7]: 4 of 6 and 4/6 | Percentage mares ovulating ([3]; Group 100, 100 ng/kg/h): 67% | Treated mares that ovulated during the period the OMP were functional ([4]; 100 ng/kg/h s.c. OMP 28 days, transitional anoestrus, 1985): Eight of 9 | Average time (day) of ovulation from commencement of the experiment (x ± s.e.m.) ([4]; 100 ng/kg/h, 1985, n=9, P<0.05 vs controls): 18.6 ± 4.3 days and 18.8 ± 4.3 days | Mares that failed to conceive ([4]; 100 ng/kg/h, 1985, treated group): One | Average day of conception from commencement of the experiment (x ± s.e.m.) ([4]; 100 ng/kg/h, 1985, P<0.05 vs controls, one mare failed to conceive): 24.4 ± 8.1 days | Percentage mares ovulating (mares in deep anoestrus; Group 50, 50 ng/kg/h): 30% | Proportion mares ovulating (mares in deep anoestrus; Group 50, 50 ng/kg/h): 3/10 | Percentage mares ovulating (mares in deep anoestrus; Group 100, 100 ng/kg/h): 70% | Proportion mares ovulating (mares in deep anoestrus; Group 100, 100 ng/kg/h, P < .01 vs controls): 7/10 | Average time from OMP insertion to ovulation ([5]; Group 50, 50 ng/kg/h): 18.5 days | Proportion mares ovulating [5, 6]: 2 of 5 and 2/5 | Percentage mares ovulating ([5]; Group 50, 50 ng/kg/h): 40% | Average time from OMP insertion to ovulation ([5]; Group 100, 100 ng/kg/h): 17.3 days | Proportion mares ovulating [5, 7]: 3 of 4 and 3/4 | Percentage mares ovulating ([5]; Group 100, 100 ng/kg/h): 75% | Mean LH pulse frequency ([5]; Group 100 compared to controls, Day 21): significantly (<0.05) higher | LH pulse amplitude ([5]; between the 3 groups, any of the days studied): no statistical difference | LH pulse frequency ([5]; between the groups, Day 28): no difference | Mean daily plasma LH concentrations ([5]; both treated groups (50 and 100 ng/kg/h) compared to control mares): higher | LH pulse frequency ([5]; both treated groups compared to controls, within 7 days of insertion of OMP): significantly (p<0.05) higher
